From patent US20200039973A1, “NOVEL 5-SUBSTITUTED IMIDAZOLYLMETHYL DERIVATIVES” (BAYER CROPSCIENCE AKTIENGESELLSCHAFT, priority 2016, published 2020)

Assay: Measurement of LogP values by HPLC on reversed phase columns (EEC directive 79/831 Annex V.A8)
Format: physicochemical
Conditions: Table 1; method [a]: LC-UV, acidic range, 0.1% formic acid in water and acetonitrile as eluent
Method: Measurement of LogP values was performed according to EEC directive 79/831 Annex V.A8 by HPLC (High Performance Liquid Chromatography) on reversed phase columns with the following methods: • ^[a] Log P value is determined by measurement of LC-UV, in an acidic range, with 0.1% formic acid in water and acetonitrile as eluent (linear gradient from 10% acetonitrile to 95% acetonitrile). • ^[b] Log P value is determined by measurement of LC-UV, in a neutral range, with 0.001 molar ammonium acetate solution in water and acetonitrile as eluent (linear gradient from 10% acetonitrile to 95% acetonitrile). • ^[c] Log P value is determined by measurement of LC-UV, in an acidic range, with 0.1% phosphoric acid and acetonitrile as eluent (linear gradient from 10% acetonitrile to 95% acetonitrile).
If more than one Log P value is available within the same method, all the values are given and separated by “+”.
Calibration was done with straight-chain alkan2-ones (with 3 to 16 carbon atoms) with known Log P values (measurement of Log P values using retention times with linear interpolation between successive alkanones). Lambda-max-values were determined using UV-spectra from 200 nm to 400 nm and the peak values of the chromatographic signals.

Compound | LogP | chromatographic logP
N#Cc1cncn1CC(O)(Cc1ccc(Cl)cc1F)c1ccccc1 (centres unmarked) [I-18] | 2.98^[a] | –
N#Cc1cncn1CC(O)(Cc1ccc(F)cc1)c1ccccc1 (centres unmarked) [I-05] | 2.47^[a] | –
N#Cc1cncn1CC(O)(Cc1ccccc1F)c1ccc(Cl)s1 (centres unmarked) [I-19] | 2.78^[a] | –
N#Cc1cncn1CC(O)(Cc1cccc(F)c1F)c1ccc(F)cc1F (centres unmarked) [I-12] | 2.75^[a] | –
Cc1cccc(CC(O)(Cn2cncc2C#N)c2ccc(F)cc2F)c1F (centres unmarked) [I-11] | 2.98^[a] | –
N#Cc1cncn1CC(O)(Cc1ccccc1F)c1ccco1 (centres unmarked) [I-30] | 2.15^[a] | –
N#Cc1cncn1CC(O)(Cc1ccc(F)cc1F)c1ccc(F)cc1F (centres unmarked) [I-02] | 2.82^[a] | –
N#Cc1cncn1CC(O)(Cc1ccc(Cl)cc1F)c1ccc(F)cc1F (centres unmarked) [I-07] | 3.17^[a] | –
N#Cc1cncn1CC(O)(Cc1ccc(Cl)cc1F)c1cc(F)ccc1F (centres unmarked) [I-26] | 3.07^[a] | –
N#Cc1cncn1CC(O)(Cc1ccccc1F)c1ccc(F)cc1F (centres unmarked) [I-20] | 2.68^[a] | –
N#Cc1cncn1CC(O)(Cc1ccccc1Cl)c1ccccc1 (centres unmarked) [I-17] | 2.70^[a] | –
N#Cc1cncn1CC(O)(Cc1ccc(F)cc1)c1ccc(F)cc1F (centres unmarked) [I-24] | 2.73^[a] | –
N#Cc1cncn1CC(O)(Cc1ccc(F)cc1F)c1ccccc1 (centres unmarked) [I-09] | 2.60^[a] | –
N#Cc1cncn1CC(O)(Cc1ccc(F)cc1F)c1cc(F)ccc1F (centres unmarked) [I-27] | 2.77^[a] | –
N#Cc1cncn1CC(O)(Cc1cccc(F)c1F)c1ccccc1 (centres unmarked) [I-04] | 2.40^[a] | –
N#Cc1cncn1CC(O)(Cc1ccccc1Cl)c1ccco1 (centres unmarked) [I-32] | 2.45^[a] | –

Compound | LogP | chromatographic logP
N#Cc1cncn1CC(O)(Cc1ccccc1F)c1ccccc1 (centres unmarked) [I-08] | 2.51^[a] | –
N#Cc1cncn1CC(O)(Cc1ccccc1F)c1cc(F)ccc1F (centres unmarked) [I-25] | 2.63^[a] | –
N#Cc1cncn1CC(O)(Cc1ccccc1F)C1(c2ccccc2)CC1 (centres unmarked) [I-14] | 3.18^[a] | –
N#Cc1cncn1CC(O)(Cc1cccc(F)c1F)c1ccco1 (centres unmarked) [I-31] | 2.25^[a] | –
N#Cc1cncn1CC(O)(Cc1ccc(F)c(F)c1F)c1ccc(F)cc1F (centres unmarked) [I-03] | 2.96^[a] | –
N#Cc1cncn1CC(O)(Cc1ccc(F)cc1F)c1ccc(Cl)s1 (centres unmarked) [I-10] | 2.90^[a] | –
N#Cc1cncn1CC(O)(Cc1cccc(Cl)c1F)c1ccc(F)cc1F (centres unmarked) [I-22] | 3.06^[a] | –
N#Cc1cncn1CC(O)(Cc1cccc(Cl)c1F)c1ccco1 (centres unmarked) [I-33] | 2.57^[a] | –
N#Cc1cncn1CC(O)(Cc1ccccc1Cl)c1cc(F)ccc1F (centres unmarked) [I-28] | 2.92^[a] | –
N#Cc1cncn1CC(O)(Cc1ccc(F)c(F)c1F)c1ccccc1 (centres unmarked) [I-21] | 2.57^[a] | –
N#Cc1cncn1CC(O)(Cc1ccccc1Cl)C1(c2ccccc2)CC1 (centres unmarked) [I-15] | 3.44^[a] | –
N#Cc1cncn1CC(O)(Cc1cccc(F)c1F)c1cc(F)ccc1F (centres unmarked) [I-29] | 2.73^[a] | –
N#Cc1cncn1CC(O)(Cc1cccc(F)c1F)C1(c2ccccc2)CC1 (centres unmarked) [I-23] | 3.25^[a] | –
N#Cc1cncn1CC(O)(Cc1ccccc1Cl)c1ccc(F)cc1F (centres unmarked) [I-01] | 3.00^[a] | –
N#Cc1cncn1CC(O)(Cc1ccc(F)cc1F)c1ccco1 (centres unmarked) [I-34, 3-[3-(2,4-difluorophenyl)-2-(2-furyl)-2-hydroxy-propyl]imidazole-4-carbonitrile] | – | 2.32

Same assay, conditions: Table 2 (formula XVIIa); method [a]: LC-UV, acidic range, 0.1% formic acid in water and acetonitrile as eluent

Compound | LogP
N#Cc1cncn1CC(=O)Cc1ccccc1Br [XVIIa-06] | 2.02^[a]
N#Cc1cncn1CC(=O)Cc1ccc(Cl)cc1 [XVIIa-07] | 2.14^[a]
N#Cc1cncn1CC(=O)Cc1ccccc1 [XVIIa-04] | 1.65^[a]
N#Cc1cncn1CC(=O)Cc1ccccc1F [XVIIa-03] | 1.75^[a]
N#Cc1cncn1CC(=O)Cc1ccccc1Cl [XVIIa-05] | 1.82^[a]
N#Cc1cncn1CC(=O)Cc1cccc(F)c1F [XVIIa-02] | 1.87^[a]

Same assay, conditions: reversed-phase HPLC column; Table 1; method [a]: LC-UV, acidic range, 0.1% formic acid in water and acetonitrile as eluent

Compound | chromatographic logP
N#Cc1cncn1CC(O)(Cc1ccc(F)cc1F)C1(c2ccccc2)CC1 (centres unmarked) [I-06, 3-[3-(2,4-difluorophenyl)-2-hydroxy-2-(1-phenylcyclopropyl)propyl]imidazole-4-carbonitrile] | 3.29
N#Cc1cncn1CC(O)(Cc1ccccc1)c1ccc(F)cc1F (centres unmarked) [I-13, 3-[2-(2,4-difluorophenyl)-2-hydroxy-3-phenyl-propyl]imidazole-4-carbonitrile] | 2.68
N#Cc1cncn1CC(O)(Cc1cccc(F)c1F)c1ccc(Cl)s1 (centres unmarked) [I-16, 3-[2-(5-chloro-2-thienyl)-3-(2,3-difluorophenyl)-2-hydroxy-propyl]imidazole-4-carbonitrile] | 2.86

Same assay, conditions: reversed-phase HPLC column; Table 2 (formula XVIIa); method [a]: LC-UV, acidic range, 0.1% formic acid in water and acetonitrile as eluent

Compound | chromatographic logP
N#Cc1cncn1CC(=O)C1(c2ccccc2)CC1 [XVIIa-01, 3-[2-oxo-2-(1-phenylcyclopropyl)ethyl]imidazole-4-carbonitrile] | 2.17
